# Data reported in patent US20170298073A1, “SALTS, CO-CRYSTALS, AMORPHOUS FORMS, AND CRYSTALLINE FORMS OF A CO-ACTIVATOR-ASSOCIATED ARGININE METHYLTRANSFERASE 1 (CARM1) INHIBITOR” (Epizyme, Inc, priority 2014, published 2017).
# Assay: Thermodynamic solubility at room temperature
# Format: physicochemical
# Details: 25 °C, thermodynamic from solid
# Procedure: In an exemplary experiment, the thermodynamic solubilities of the solid forms described herein were determined at room temperature (RT, 25±3° C.).
smiles,measurement,setting,value
CNC[C@@H](O)COc1ccc(Cl)c(-c2nc(-c3c(C)noc3C)c(C)c(N3CC4(CCN(C(=O)OC)CC4)C3)n2)c1 [Form A],solubility,"organic solvent or mixture, solvent 1,4-Dioxane",> 40 mg/mL
same,solubility,"organic solvent or mixture, solvent 2-Methyl-tetrahydrofuran",> 50 mg/mL
same,solubility,"organic solvent or mixture, solvent Acetic acid",> 44 mg/mL
same,solubility,"organic solvent or mixture, solvent Acetone",> 48 mg/mL
same,solubility,"organic solvent or mixture, solvent Acetonitrile",> 42 mg/mL
same,solubility,"organic solvent or mixture, solvent CHCl3",> 38 mg/mL
same,solubility,"organic solvent or mixture, solvent Dichloromethane",> 36 mg/mL
same,solubility,"organic solvent or mixture, solvent Dimethyl sulfoxide",> 38 mg/mL
same,solubility,"organic solvent or mixture, solvent Dimethylacetamide",> 42 mg/mL
same,solubility,"organic solvent or mixture, solvent EtOAc",> 50 mg/mL
same,solubility,"organic solvent or mixture, solvent EtOH",> 40 mg/mL
same,solubility,"organic solvent or mixture, solvent Isopropanol",> 36 mg/mL
same,solubility,"organic solvent or mixture, solvent Isopropyl acetate",> 36 mg/mL
same,solubility,"organic solvent or mixture, solvent MeOH",> 38 mg/mL
same,solubility,"organic solvent or mixture, solvent Methyl isobutyl ketone",> 34 mg/mL
same,solubility,"organic solvent or mixture, solvent Methyl-tert-butyl ether",< 1.1 mg/mL
same,solubility,"organic solvent or mixture, solvent N-methyl-2-pyrrolidone",> 44 mg/mL
same,solubility,"organic solvent or mixture, solvent THF",> 36 mg/mL
same,solubility,"organic solvent or mixture, solvent Toluene",> 38 mg/mL
same,solubility,"organic solvent or mixture, solvent n-Heptane",< 1.1 mg/mL
same,solubility,"organic solvent or mixture, solvent n-Heptane/THF (1:1 by volume)",14 to 21 mg/mL
same,solubility,"organic solvent or mixture, solvent n-Heptane/THF (1:2 by volume)",> 42 mg/mL
same,solubility,"organic solvent or mixture, solvent n-Heptane/THF (1:3 by volume)",> 40 mg/mL
same,solubility,"organic solvent or mixture, solvent n-Heptane/THF (2:1 by volume)",2.6 to 3 mg/mL
same,solubility,"organic solvent or mixture, solvent n-Heptane/THF (4:1 by volume)",< 1.6 mg/mL
same,solubility,"water, solvent H2O",< 1.1 mg/mL
